Laboratory results as given in US20030224940A1, “Alpha-sulfin-and alpha-sulfonamino acid amide derivatives” (priority 2000, published 2003).
Read-outs that look alike come from different tables or passages of the source.

Assays:
Phytophthora [1] = experiment: whole plant or invertebrate; assay type: in vivo; conditions: in Solanum tuberosum, read-out: inhibit fungal infestation
Plasmopara viticola = conditions: read-out: inhibit fungal infestation
Description: D-1: Action Against Plasmopara viticola (downy mildew) on Vines
5 week old grape seedlings cv. Gutedel are treated with the formulated test compound in a spray chamber. One day after application grape plants are inoculated by spraying a sporangia suspension (4×10^4 sporangia/ml) on the lower leaf side of the test plants. After an incubation period of 6 days at +21° C. and 95% r. h. in a greenhouse the disease incidence is assessed.

Phytophthora [2] = experiment: whole plant or invertebrate; assay type: in vivo; conditions: in Solanum lycopersicum, read-out: inhibit fungal infestation

| Compound | melting point [°C] | inhibition at 200 ppm (Phytophthora [1]) [%] | inhibition at 200 ppm (Plasmopara viticola) [%] | inhibition at 200 ppm (Phytophthora [2]) [%] |
| --- | --- | --- | --- | --- |
| CCS(=O)(=O)N[C@H](C(=O)NCc1ccc(O)c(OC)c1)C(C)C | 49 to 50 |  |  |  |
| CCS(=O)(=O)N[C@H](C(=O)NCc1ccc(OCc2ccccc2)c(OC)c1)C(C)C | 141 to 152 |  |  |  |
| CCS(=O)(=O)N[C@H](C(=O)NCc1ccc(OCC#Cc2ccc(Cl)cc2)c(OC)c1)C(C)C [Compound A1.1, (S)-N-{4-[3-(4-Chloro-phenyl)-prop-2-ynyloxy]-3-methoxy-benzyl}-2-ethanesulfonylamino-3-methyl-butyramide] | 162 to 163 | ≥ 80 | ≥ 80 | ≥ 80 |
